Measured values: the NIST ThermoML archive (doi:10.1021/je034162x)

Conditions: 101.33 kPa, Liquid, Hot wire method

C1CCCCCC1 [cycloheptane]
Conditions | thermal conductivity [W/m/K] | thermal diffusivity [m2/s]
262.18 K | 0.1272 | –
262.37 K | 0.1271 | –
262.5 K | 0.1271 | –
262.77 K | – | 8.84e-08
263.24 K | – | 8.9e-08
263.56 K | – | 8.91e-08
280.17 K | 0.1228 | –
280.35 K | 0.1227 | –
280.48 K | 0.1227 | –
280.76 K | – | 8.39e-08
281.19 K | – | 8.4e-08
281.5 K | – | 8.4e-08
297.01 K | 0.1187 | –
297.2 K | 0.1185 | –
297.33 K | 0.1185 | –
297.59 K | – | 7.97e-08
298.03 K | – | 7.98e-08
298.33 K | – | 7.98e-08
320.05 K | 0.1132 | –
320.23 K | 0.1131 | –
320.36 K | 0.113 | –
320.62 K | – | 7.47e-08
321.05 K | – | 7.46e-08
321.34 K | – | 7.46e-08

[2H]C1([2H])C([2H])([2H])C([2H])([2H])C([2H])([2H])C([2H])([2H])C1([2H])[2H] [cyclohexane-d12]
Conditions | thermal conductivity [W/m/K] | thermal diffusivity [m2/s]
280.46 K | 0.1163 | –
280.63 K | 0.1162 | –
280.74 K | 0.1161 | –
280.97 K | – | 6.83e-08
281.35 K | – | 6.85e-08
281.6 K | – | 6.81e-08
291.18 K | 0.1133 | –
291.34 K | 0.1133 | –
291.45 K | 0.1132 | –
291.65 K | – | 6.5e-08
292.04 K | – | 6.54e-08
292.29 K | – | 6.53e-08
303.67 K | 0.11 | –
303.83 K | 0.1099 | –
303.92 K | 0.1098 | –
304.14 K | – | 6.23e-08
304.49 K | – | 6.22e-08
304.72 K | – | 6.19e-08
315.91 K | 0.1067 | –
316.06 K | 0.1066 | –
316.17 K | 0.1066 | –
316.35 K | – | 5.91e-08
316.71 K | – | 5.93e-08
316.96 K | – | 5.96e-08
326.3 K | 0.1042 | –
326.44 K | 0.104 | –
326.54 K | 0.104 | –
326.75 K | – | 5.75e-08
327.08 K | – | 5.73e-08
327.31 K | – | 5.72e-08

C1CCCCC1 [cyclohexane]
Conditions | thermal conductivity [W/m/K] | thermal diffusivity [m2/s]
280.83 K | 0.1232 | –
281 K | 0.1231 | –
281.15 K | 0.123 | –
281.38 K | – | 8.75e-08
281.78 K | – | 8.73e-08
282.12 K | – | 8.75e-08
295.53 K | 0.119 | –
295.7 K | 0.1189 | –
295.83 K | 0.1187 | –
296.05 K | – | 8.25e-08
296.45 K | – | 8.28e-08
296.76 K | – | 8.24e-08
300.84 K | 0.1175 | –
301 K | 0.1173 | –
301.14 K | 0.1172 | –
301.35 K | – | 8.09e-08
301.73 K | – | 8.06e-08
302.06 K | – | 8.09e-08
318.66 K | 0.1124 | –
318.82 K | 0.1123 | –
318.95 K | 0.1121 | –
319.16 K | – | 7.6e-08
319.54 K | – | 7.59e-08
319.84 K | – | 7.56e-08

C1=CCCCC1 [cyclohexene]
Conditions | thermal conductivity [W/m/K] | thermal diffusivity [m2/s]
257.22 K | 0.1406 | –
257.42 K | 0.1404 | –
257.57 K | 0.1404 | –
257.97 K | – | 1.01e-07
258.49 K | – | 1.01e-07
258.86 K | – | 1.01e-07
275.37 K | 0.1348 | –
275.58 K | 0.1346 | –
275.73 K | 0.1346 | –
276.12 K | – | 9.55e-08
276.65 K | – | 9.55e-08
277.03 K | – | 9.56e-08
295.57 K | 0.1284 | –
295.77 K | 0.1282 | –
295.92 K | 0.1281 | –
296.28 K | 0.1278 | –
296.29 K | – | 8.83e-08
296.49 K | 0.1277 | –
296.65 K | 0.1276 | –
296.77 K | – | 8.78e-08
297.03 K | – | 8.88e-08
297.15 K | – | 8.79e-08
297.55 K | – | 8.87e-08
297.94 K | – | 8.88e-08
311.67 K | 0.1231 | –
311.89 K | 0.1229 | –
312.04 K | 0.1228 | –
312.42 K | – | 8.46e-08
312.96 K | – | 8.46e-08
313.32 K | – | 8.42e-08
327.85 K | 0.118 | –
328.07 K | 0.1178 | –
328.22 K | 0.1177 | –
328.59 K | – | 7.97e-08
329.13 K | – | 7.97e-08
329.49 K | – | 7.94e-08

C1CCCCCCC1 [cyclooctane]
Conditions | thermal conductivity [W/m/K] | thermal diffusivity [m2/s]
288.7 K | 0.1205 | –
288.96 K | 0.1203 | –
289.17 K | 0.1202 | –
289.34 K | – | 7.48e-08
289.97 K | – | 7.48e-08
290.48 K | – | 7.48e-08
295.85 K | 0.1191 | –
295.88 K | 0.1191 | –
296.09 K | 0.1189 | –
296.21 K | 0.1188 | –
296.43 K | – | 7.39e-08
296.51 K | – | 7.35e-08
297.02 K | – | 7.36e-08
297.3 K | – | 7.36e-08
311.67 K | 0.1156 | –
311.88 K | 0.1154 | –
312.1 K | 0.1154 | –
312.37 K | – | 7.05e-08
312.87 K | – | 7.03e-08
313.4 K | – | 7.04e-08
328.99 K | 0.1119 | –
329.22 K | 0.1118 | –
329.43 K | 0.1117 | –
329.7 K | – | 6.75e-08
330.22 K | – | 6.75e-08
330.71 K | – | 6.72e-08

C1CCCC1 [cyclopentane]
Conditions | thermal conductivity [W/m/K] | thermal diffusivity [m2/s]
257.08 K | 0.1428 | –
257.27 K | 0.1426 | –
257.4 K | 0.1425 | –
257.78 K | – | 1.11e-07
258.26 K | – | 1.11e-07
258.6 K | – | 1.11e-07
276.13 K | 0.1349 | –
276.33 K | 0.1348 | –
276.47 K | 0.1348 | –
276.83 K | – | 1.03e-07
277.31 K | – | 1.03e-07
277.68 K | – | 1.03e-07
293.63 K | 0.1281 | –
293.83 K | 0.1279 | –
293.97 K | 0.1278 | –
294.33 K | – | 9.64e-08
294.82 K | – | 9.62e-08
295.17 K | – | 9.61e-08
300.67 K | 0.1254 | –
300.87 K | 0.1253 | –
301.01 K | 0.1251 | –
301.34 K | – | 9.3e-08
301.83 K | – | 9.29e-08
302.17 K | – | 9.28e-08
316.21 K | 0.1195 | –
316.4 K | 0.1193 | –
316.54 K | 0.1192 | –
316.87 K | – | 8.68e-08
317.34 K | – | 8.66e-08
317.67 K | – | 8.65e-08

C1=CCCC1 [cyclopentene]
Conditions | thermal conductivity [W/m/K] | thermal diffusivity [m2/s]
258.72 K | 0.1491 | –
258.94 K | 0.1489 | –
259.1 K | 0.1488 | –
259.64 K | – | 1.13e-07
260.25 K | – | 1.12e-07
260.69 K | – | 1.12e-07
276.99 K | 0.1409 | –
277.23 K | 0.1407 | –
277.4 K | 0.1406 | –
277.93 K | – | 1.05e-07
278.57 K | – | 1.05e-07
279.02 K | – | 1.05e-07
294.92 K | 0.133 | –
295.16 K | 0.1328 | –
295.33 K | 0.1327 | –
295.88 K | – | 9.78e-08
296.54 K | – | 9.78e-08
296.99 K | – | 9.74e-08
312.58 K | 0.1258 | –
312.84 K | 0.1256 | –
313.02 K | 0.1255 | –
313.55 K | – | 9.09e-08
314.21 K | – | 9.08e-08
314.67 K | – | 9.05e-08
